Laboratory results published in US9999650B2, “Peptide and peptidomimetic inhibitors” (Ra Pharmaceuticals, Inc., priority 2012, dated 2018).
Numbered stars: 1 amine (or outer) side, 2 acyl side, 3 side chain; on linkers, the order of the positions; unused ones are H or OH. Bridge positions count the residues as written; N and C are the ends. Square brackets hold non-standard residues; d marks the D form. Peptide text beside a SMILES is read from it. * marks the point of attachment. Trp(7-aza) = N[C@@H](Cc1c[nH]c2ncccc12)C(=O)O; NMeW = CN[C@@H](Cc1c[nH]c2ccccc12)C(=O)O; Phe(4-Cl) = N[C@@H](Cc1ccc(Cl)cc1)C(=O)O; X3 = O=C(C(Cc1ccc(Br)s1)N[*:1])[*:2]; mXylylene = c1cc(C[*:1])cc(C[*:2])c1; X2 = O=C(Cc1cccc(C[*:2])c1)[*:1]; X8 = CC(C)(C)[C@H](N*)c1ccccn1; dPhg = N[C@@H](C(=O)O)c1ccccc1; Chg = N[C@H](C(=O)O)C1CCCCC1; Phg = N[C@H](C(=O)O)c1ccccc1; Tle = CC(C)(C)[C@H](N)C(=O)O; NMeS = CN[C@@H](CO)C(=O)O; Thp = NC1(C(=O)O)CCOCC1; Mpa = O=C(O)CCS

Target: T1, human plasma kallikrein (Homo sapiens, UniProt P03952)
T1 construct: purchased Enzyme Research Laboratories HPKa 1303
Assay: Enzyme inhibition assay (fluorogenic substrate H-Pro-Phe-Arg-AMC)
Assay type: biochemical
Settings: Kallikrein inhibitory activity; 1 nM activated human kallikrein, 500 μM H-Pro-Phe-Arg-AMC, 1 hour room temperature; read-out: Avg. IC50
Summary of the method: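 Activated enzyme (1 nM final) was preincubated 5 min at room temperature with peptides in 10-point 8-fold dilutions. The buffer was 50 mM Tris-HCl pH 7.2, 150 mM NaCl, 10 mM CaCl2, 0.05% Brij-35. After 1 h at room temperature with 500 μM substrate (final), fluorescence was read at 360/460 nm to derive IC50.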

T1 sequence (P03952 20-390 limits assumed): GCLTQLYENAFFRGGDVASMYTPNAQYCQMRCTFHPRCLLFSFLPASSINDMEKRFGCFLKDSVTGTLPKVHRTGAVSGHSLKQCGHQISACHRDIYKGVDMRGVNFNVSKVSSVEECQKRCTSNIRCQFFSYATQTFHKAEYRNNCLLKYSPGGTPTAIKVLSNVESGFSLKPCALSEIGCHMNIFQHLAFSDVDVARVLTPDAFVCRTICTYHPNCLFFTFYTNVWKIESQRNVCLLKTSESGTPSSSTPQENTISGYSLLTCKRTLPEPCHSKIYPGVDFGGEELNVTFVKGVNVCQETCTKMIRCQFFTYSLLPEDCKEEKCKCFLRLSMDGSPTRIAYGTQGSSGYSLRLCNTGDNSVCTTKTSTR
T1 sequence (P03952 391-638 limits assumed): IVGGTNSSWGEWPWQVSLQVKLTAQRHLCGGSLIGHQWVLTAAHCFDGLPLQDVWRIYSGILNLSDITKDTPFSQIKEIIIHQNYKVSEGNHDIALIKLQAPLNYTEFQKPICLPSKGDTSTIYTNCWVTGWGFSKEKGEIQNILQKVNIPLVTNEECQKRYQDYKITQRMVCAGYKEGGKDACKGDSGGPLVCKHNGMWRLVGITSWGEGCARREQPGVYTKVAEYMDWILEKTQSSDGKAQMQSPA

| Compound | IC50 |
| --- | --- |
| CC(=O)N[C@H]1CSCc2cccc(c2)CSC[C@@H](C(N)=O)NC(=O)[C@H](C)NC(=O)[C@H]([C@@H](C)O)NC(=O)[C@H](Cc2c[nH]c3ccccc23)NC(=O)[C@@H]2CCCN2C(=O)[C@H](CO)NC(=O)[C@H](Cc2c[nH]c3ccccc23)NC(=O)[C@H](Cc2ccc(O)cc2)NC(=O)[C@H](CC(N)=O)NC1=O [Compound R2136, [mXylyl(1,10)]Ac-CNYWSPWTAC-NH2] (Ac-CNYWSPWTAC-NH2; linker 1-10 via mXylylene) | 0.0061 µM |
| CC(C)(C)[C@H](NC(=O)[C@H](CCCNC(=N)N)NC(=O)[C@@H]1COCc2cn(nn2)CCCCC(=O)N2CCC[C@H]2C(=O)N[C@@H](C2CCCCC2)C(=O)N1)C(N)=O [Compound R2252] | > 100 µM |
| CC(=O)N[C@@H](CS)C(=O)N[C@@H](CC(N)=O)C(=O)N[C@@H](Cc1ccc(O)cc1)C(=O)N[C@@H](Cc1c[nH]c2ccccc12)C(=O)N[C@@H](CO)C(=O)N1CCC[C@H]1C(=O)N[C@H](Cc1c[nH]c2ccccc12)C(=O)N[C@H](C(=O)N[C@@H](C)C(=O)N[C@@H](CS)C(N)=O)[C@@H](C)O [Compound R2228, Ac-CNYWSPwTAC-NH2] (Ac-CNYWSP[dW]TAC-NH2) | > 10.6 µM |
| CC(C)(C)[C@H](NC(=O)C(Cc1ccc(Br)s1)NC(=O)[C@@H]1CSCc2cccc(c2)CSCCC(=O)N2CCC[C@H]2C(=O)N[C@@H](c2ccccc2)C(=O)N1)C(N)=O (stereo partly drawn) [Compound R2219, [mXylyl(1,4)](des-NH2)C-P-Phg-C-ABP-Tbg-NH2] ([Mpa]P[Phg]C[X3][Tle]-NH2; linker 1-4 via mXylylene) | > 100 µM |
| CC(=O)N[C@@H](CS)C(=O)N[C@@H](CC(N)=O)C(=O)N[C@H](Cc1ccc(O)cc1)C(=O)N[C@@H](Cc1c[nH]c2ccccc12)C(=O)N[C@@H](CO)C(=O)N1CCC[C@H]1C(=O)N[C@@H](Cc1c[nH]c2ccccc12)C(=O)N[C@H](C(=O)N[C@@H](C)C(=O)N[C@@H](CS)C(N)=O)[C@@H](C)O [Compound R2232, Ac-CNyWSPWTAC-NH2] (Ac-CN[dY]WSPWTAC-NH2) | > 1.95 µM |
| CC(=O)N[C@@H](CS)C(=O)N[C@@H](CC(N)=O)C(=O)N[C@@H](Cc1ccc(O)cc1)C(=O)N[C@@H](Cc1c[nH]c2ccccc12)C(=O)N(C)[C@@H](CO)C(=O)N1CCC[C@H]1C(=O)N[C@@H](Cc1c[nH]c2ccccc12)C(=O)N[C@H](C(=O)N[C@@H](C)C(=O)N[C@@H](CS)C(N)=O)[C@@H](C)O [Compound R2237, Ac-CNYW-nMeS-PWTAC-NH2] (Ac-CNYW[NMeS]PWTAC-NH2) | > 13.9 µM |
| CC(C)(C)[C@H](NC(=O)[C@H](CCCNC(=N)N)NC(=O)[C@@H]1CSCc2cccc(c2)CSCCC(=O)N2CCC[C@H]2C(=O)N[C@@H](c2ccccc2)C(=O)N1)C(N)=O [Compound R2188, [mXylyl(1,4)](des-NH2)C-P-Phg-CR-Tbg-NH2] ([Mpa]P[Phg]CR[Tle]-NH2; linker 1-4 via mXylylene) | 0.0034 µM |
| CC[C@H](C)[C@@H]1NC(=O)[C@H](CO)NC(=O)[C@H](CCC(=O)O)NC(=O)[C@@H](NC(=O)[C@@H](N)CCSC)CSCc2cccc(c2)CSC[C@@H](C(=O)N[C@@H](CCCNC(=N)N)C(=O)N[C@@H](CCC(=O)O)C(N)=O)NC1=O [Compound R2087, [mXylyl(2,6)]MCESICRE-NH2] (H-MCESICRE-NH2; linker 2-6 via mXylylene) | > 16.6 µM |
| CC(C)(C)[C@H](NC(=O)[C@H](CCCNC(=N)N)NC(=O)[C@@H]1CSCc2cccc(c2)CC(=O)N[C@@H](CCC(=O)O)C(=O)N2CCC[C@H]2C(=O)N[C@@H](C2CCCCC2)C(=O)N1)C(N)=O [Compound R2264] (EP[Chg]CR[Tle]-NH2; linker N-4 via X2) | 1.1 µM |
| CC(C)(C)[C@H](NC(=O)[C@H](CCCNC(=N)N)NC(=O)[C@@H]1CSCc2cccc(c2)/C=C/CCC(=O)N2CCC[C@H]2C(=O)N[C@@H](C2CCCCC2)C(=O)N1)C(N)=O [Compound R2260] | 4.68 µM |
| CC(C)(C)[C@H](NC(=O)[C@H](Cc1ccc(Cl)cc1)NC(=O)[C@@H]1CSCc2cccc(c2)CSCCC(=O)N2CCC[C@H]2C(=O)N[C@H](c2ccccc2)C(=O)N1)C(N)=O [Compound R2206, [mXylyl(1,4)](des-NH2)C-P-(D)Phg-C-4-Cl-Phe-Tbg-NH2] ([Mpa]P[dPhg]C[Phe(4-Cl)][Tle]-NH2; linker 1-4 via mXylylene) | > 75 µM |
| C[C@@H]1NC(=O)C2(CCOCC2)NC(=O)CCSCc2cccc(c2)CSC[C@@H](C(=O)N[C@@H](Cc2c[nH]c3ncccc23)C(=O)N[C@H](C(N)=O)C(C)(C)C)NC(=O)[C@H](C2CCCCC2)NC1=O [Compound R2147, [mXylyl(1,5)](des-NH2)C-AcPyr-A-Chg-C-AzaTrp-Tbg-NH2] ([Mpa][Thp]A[Chg]C[Trp(7-aza)][Tle]-NH2; linker 1-5 via mXylylene) | > 2.19 µM |
| Ac-SPWTECSA-NH2 [Compound R2120, Ac-SPWTECSA-NH2] | > 100 µM |
| CC[C@H](C)[C@@H]1NC(=O)[C@H](CO)NC(=O)CSCc2cccc(c2)CSC[C@@H](C(=O)N[C@@H](CCCNC(=N)N)C(=O)N[C@H](C(N)=O)C(C)C)NC1=O [Compound R2154, [mXylyl(1,4)](2-SAc)-SICRV-NH2] | > 7.93 µM |
| CC(=O)N[C@H](C(=O)N[C@H]1CSCc2cccc(c2)CSC[C@@H](C(N)=O)NC(=O)[C@@H]2CCCN2C(=O)[C@H](C(C)C)NC(=O)[C@H](CCCNC(=N)N)NC1=O)C1CCCCC1 [Compound R2160, [mXylyl(2,6)]Ac-Chg-CR-V-PC-NH2] (Ac-[Chg]CRVPC-NH2; linker 2-6 via mXylylene) | > 100 µM |
| CC(C)(C)[C@H](NC(=O)[C@H](CCCNC(=N)N)NC(=O)[C@@H]1CSCc2cccc(c2)CSCCC(=O)N2CCC[C@H]2C(=O)N[C@@H](C2CCCCC2)C(=O)N1)c1ccccn1 [Compound R2196, [mXylyl(1,4)](des-NH2)C-P-Chg-CR-(S)-2,2-dimethyl-1-(pyridin-2-yl)propan-1-amine] ([Mpa]P[Chg]CR-X8; linker 1-4 via mXylylene) | 0.0356 µM |
| CC(C)(C)[C@H](NC(=O)[C@H](CCCNC(=N)N)NC(=O)[C@@H]1CCCc2cn(nn2)CCCCC(=O)N2CCC[C@H]2C(=O)N[C@@H](C2CCCCC2)C(=O)N1)C(N)=O [Compound R2253] | > 100 µM |
| CC[C@@H](C)[C@@H]1NC(=O)[C@@H]2CCCN2C(=O)CCCCCC/C=C/C[C@@H](C(=O)N[C@@H](CCCNC(=N)N)C(=O)N[C@H](C(N)=O)C(C)C)NC1=O [Compound R2245] | > 50 µM |
| CC(=O)N[C@@H](CS)C(=O)N[C@@H](CC(N)=O)C(=O)N[C@@H](Cc1ccc(O)cc1)C(=O)N[C@@H](Cc1c[nH]c2ccccc12)C(=O)N[C@@H](CO)C(=O)N1CCC[C@H]1C(=O)N(C)[C@@H](Cc1c[nH]c2ccccc12)C(=O)N[C@H](C(=O)N[C@@H](C)C(=O)N[C@@H](CS)C(N)=O)[C@@H](C)O [Compound R2236, Ac-CNYWSP-nMeW-TAC-NH2] (Ac-CNYWSP[NMeW]TAC-NH2) | > 4.9 µM |
| CC(=O)N[C@@H](CS)C(=O)N[C@@H](CC(N)=O)C(=O)N[C@@H](Cc1ccc(O)cc1)C(=O)N[C@@H](Cc1c[nH]c2ccccc12)C(=O)N[C@@H](C)C(=O)N1CCC[C@H]1C(=O)N[C@@H](Cc1c[nH]c2ccccc12)C(=O)N[C@H](C(=O)N[C@@H](CCC(=O)O)C(=O)N[C@@H](CS)C(N)=O)[C@@H](C)O [Compound R2131, Ac-CNYWAPWTEC-NH2] (Ac-CNYWAPWTEC-NH2) | 0.127 µM |
| CC(C)(C)[C@H](NC(=O)[C@H](CCCNC(=N)N)NC(=O)[C@@H]1CSCc2cccc(c2)C/C=C/CC(=O)N2CCC[C@H]2C(=O)N[C@@H](C2CCCCC2)C(=O)N1)C(N)=O [Compound R2261] | 0.164 µM |
